The conditions of data set [1]: humans; prior art U.S. Pat. No. 5,880,117; cited from earlier work.
The nature of data set [2]: half-life when delivered sublingually or transmucosally. To be noted: in vivo. The method, then: 7-methoxyflavone is an aromatase inhibitor. Aromatase inhibitors work by inhibiting the action of the enzyme aromatase, which converts androgens into estrogens by a process called aromatization. 7-methoxyflavone is a compound having poor bioavailability of about 5% when ingested. According to an embodiment of the present invention, from about 5 mg to 50 mg, and preferably from about 20 mg to 30 mg of 7-methoxyflavone may be included in the formulations and dosage forms of the present invention, when delivered sublingually or transmucosally. […] According to an embodiment, the 7-methoxyflavone may be from a plant extract. 7-methoxyflavone has been found in Meliaceae and Rutaceae plants. According to an embodiment, the 7-methoxyflavone may therefore be from an extract containing at least 90% 7-methoxyflavone, standardized. Preferably, extract contains at least […] 7-methoxyflavone, standardized.
According to an embodiment of the present invention, from about 5 mg to 50 mg, and preferably from about 20 mg to 30 mg of 7,8-benzoflavone may be included in the formulations and dosage forms of the present invention, when delivered sublingually or transmucosally. According to an embodiment, the half-life of 7,8-benzoflavone is about 1-2h when delivered sublingually or transmucosally.

The structures appear in SMILES notation.

On to `C[C@]12CC[C@H]3[C@@H](CCC4=C[C@@H](O)CC[C@@]43C)[C@@H]1CC[C@@H]2O` [4-androstene-3β, 17β-diol], for which, in data set [1], the “period over which concentration declines after the peak” value is 3 to 4 h and the “time to peak concentration after administration” value is no more than 90 min.
Take `COc1ccc2c(=O)cc(-c3ccccc3)oc2c1` [7-methoxyflavone]: the half-life in data set [2] is 8 to 12 h.
For the compound `O=c1cc(-c2ccccc2)oc2c1ccc1ccccc12` [7,8-benzoflavone, 2-phenyl-benzo(h)chromen-4-one], in data set [2], the half-life lay within 1 to 2 h.

The half-life is the time needed for the level to fall by half in the phase considered. Low values mean rapid decline, high ones slow decline.

Values taken from US20160361257A1, “COMPOSITION FOR INCREASING TESTOSTERONE LEVELS AND ENHANCING LIBIDO” (priority 2015, published 2016).
